Data from patent US20260049078A1, “DIFLUORO- AND TRIFLUORO-ACETYL HYDRAZIDES AS SELECTIVE HDAC6 INHIBITORS” (ITALFARMACO S.P.A., priority 2022, published 2026).

How the values were obtained:
SH-SY5Y cells = assay: In vitro α-tubulin acetylation in undifferentiated SH-SY5Y cells; assay type: cell-based; details: overnight, @1uM
Experimental: SH-SY5Y cells (ATCC, cod. CRL-2266) are plated in optical optimized 96-well black plates (Perkin Elmer, cod. 6055302) at 5000 cells/well in 100 μl/well of growth medium (DMEM/F12 (1:1)+10 mM hepes+100 units/mL of penicillin+100 μg/mL of streptomycin+10% of inactivated Foetal calf serum (FCS, Hyclone)).
After 24 h of seeding, cells are incubated overnight with the selected molecules at 0.1-1-10 μM. ACY1083 and Tubastatin A, at the same doses, are tested as positive controls of α-Tubulin acetylation, while untreated cells are incubated with 0.01% DMSO and indicated as CTRL DMSO.
At the end of the incubation, cells are fixed adding 100 μL/well of formaldehyde 8% in PBS (final formaldehyde concentration 4% in 200 μL/well) directly in the 100 μL/well of medium, for 30 min at RT. The fixing solution is carefully removed, and wells are washed twice with PBS for 10 min each. Fixed cells are kept in PBS at 4° C. until staining.
The day of the staining experiment, the fixed cells are incubated 60 min with the blocking buffer (PBS with 5% FCS+0.3% Triton™ X-100). While blocking, primary antibodies are prepared by diluting 1:200 the α-Tubulin Alexa Fluor 488 Conjugate (Cell Signaling, cod. 5063) antibody and 1:50 Acetyl-α-Tubulin Alexa Fluor 647 Conjugate (Cell Signaling, cod. 81502) antibody in the Antibody Dilution Buffer (PBS with 1% BSA+0.3% Triton™ X-100). Once the blocking solution is aspirated, the diluted primary antibodies are applied and incubated overnight at 4° C. The next day, cells are rinsed twice with PBS (10 min each), incubated 5 min with 300 nM DAPI in PBS, and then rinsed twice with PBS (10 min each). For each treatment, 3 wells are stained.
Images of the stained cells are acquired by means of the IN Cell Analyzer 2500 HS Instrument, using: far red channel for Acetyl-α-Tubulin staining (exposure 0.02 sec), green channel for α-Tubulin staining (exposure 0.02 sec), and blue channel for DAPI (nuclei) staining. For each well, 10 images are acquired.
Images of stained cells are analysed with the InCarta software (Molecular Devices) for obtaining fluorescence intensity considering whole cells. For each treatment, mean values of Cell intensity—Bckg (Cell), for both staining, are obtained using the InCarta raw data by FOV (Field of View). Results are expressed as fold increase of the ratio of acetylated tubulin and total tubulin towards control (CTRL DMSO).

recombinant human HDAC1 = recombinant human HDAC1 (Homo sapiens (Human), UniProt Q13547); assay: Enzyme inhibitory activity assay on HDAC1; assay type: biochemical; details: 120 minutes preincubation at 25° C.
Experimental: For each test compound, 100× concentrated DMSO solutions at 8 doses were prepared and then diluted in assay buffer (25 mM Tris-HCl, pH 8, 130 mM NaCl, 0.05% Tween-20, 10% Glycerol) to obtain 5× concentrated solutions in relation to the final concentrations (typical final concentration range—6.4-200000 nM or 0.18-50000 nM, final DMSO content—1%). Then 10 μL solution of each test compound concentration were placed on a 96-well plate in triplicate and 15 μL of 3.33× concentrated enzyme solution in the assay buffer containing 3.33× concentrated BSA (final BSA concentration 1 mg/mL) and, in case of HDAC6, 3.33× concentrated TCEP (final TCEP concentration—200 μM) were added to each well. After a period of preincubation at 25° C. (30 minutes for HDAC6 and 120 minutes for HDAC1), 25 μL of solution containing the substrate were added. As substrate, FLUOR DE LYS® deacetylase substrate (Enzo Life Sciences, cat: BML-KI104, FdL), FLUOR DE LYS®-Green substrate (Enzo Life Sciences, cat: BML-KI572, FdL_G) or Boc-Lys(Tfa)-AMC (Bachem, cat: 4060676.005, Tfal)—2× concentrated solution in assay buffer were used. Following a reaction period (30 minutes at 25° C.), 50 μL of the development solution consisting of concentrate FLUOR DE LYS® developer I (Enzo Life Sciences, ca: BML-KI105), diluted 200 times in buffer (50 mM Tris-HCl, pH 8, 137 mM NaCl, 2.7 mM KCl, 1 mM MgCl2) plus 2 μM TSA was added and, after 25 minutes at room temperature in the dark, using the Victor 1420 Multilabel Counter Perkin Elmer Wallac instrument, the fluorescence reading was carried out (excitation/emission: 485/535 nM—Fluor de Lys Green, 355/460 nM—Tfal, Fluor de Lys).
Enzymatic activity on recombinant human HDAC6 and HDAC1 was evaluated (Table 2) for each synthesized compound.

Chain of recombinant human HDAC1 (Q13547 whole entry): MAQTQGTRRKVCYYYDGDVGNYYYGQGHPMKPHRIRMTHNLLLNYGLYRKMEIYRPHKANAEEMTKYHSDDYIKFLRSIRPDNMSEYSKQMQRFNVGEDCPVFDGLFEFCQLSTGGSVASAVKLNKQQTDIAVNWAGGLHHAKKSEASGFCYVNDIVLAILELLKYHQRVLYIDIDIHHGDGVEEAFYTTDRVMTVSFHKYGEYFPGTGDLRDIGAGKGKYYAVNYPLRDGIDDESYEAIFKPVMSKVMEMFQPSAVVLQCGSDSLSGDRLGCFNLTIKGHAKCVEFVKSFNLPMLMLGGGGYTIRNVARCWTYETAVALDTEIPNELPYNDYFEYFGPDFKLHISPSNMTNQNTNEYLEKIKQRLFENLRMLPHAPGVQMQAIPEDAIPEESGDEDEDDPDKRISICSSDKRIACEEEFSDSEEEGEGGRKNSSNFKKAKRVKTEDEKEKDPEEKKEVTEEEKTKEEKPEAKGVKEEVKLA

Row | IC50 (recombinant human HDAC1) [µM] | Structure (SMILES) | TubAc SH-SY5Y cells fold increase of the ratio of acetylated tubulin and total tubulin towards control (SH-SY5Y cells) [fold]
1 | > 100 | FC(F)c1nnc(-c2ccc(Cn3cc(-c4ccc(NC5=NCCN5)cc4)nn3)cc2)o1 [Compound 1-A] | 2
2 | > 100 | Nc1nc2ccc(-c3cn(Cc4ccc(-c5nnc(C(F)F)o5)cc4F)nn3)cc2s1 [Compound 2-A] | 6.2
3 | > 100 | FC(F)c1nnc(-c2ccc(Cn3cc(-c4ccccc4)nn3)nc2)o1 [Compound 13-A] | –
4 | > 100 | Fc1ccccc1-c1cn(Cc2ccc(-c3nnc(C(F)F)o3)cn2)nn1 [Compound 14-A] | 6.3
5 | > 100 | FC(F)c1nnc(-c2ccc(Cn3cc(-c4ccccn4)nn3)nc2)o1 [Compound 20-A] | –
6 | > 100 | Nc1nc2ccc(-c3cn(Cc4ccc(-c5nnc(C(F)F)o5)cc4)nn3)cc2s1 [Compound 32-A] | 6.3
7 | > 100 | Nc1nc2ccc(-c3cn(Cc4ccc(-c5nnc(C(F)F)o5)cc4Cl)nn3)cc2s1 [Compound 37-A] | 6
8 | > 100 | Nc1nc2ccc(-c3cn(Cc4ccc(-c5nnc(C(F)F)o5)cn4)nn3)cc2s1 [Compound 38-A] | 10
9 | > 100 | Nc1nc2ccc(C3CN(Cc4ccc(C(=O)NNC(=O)C(F)F)s4)N=N3)cc2s1 (stereo not shown) [Compound 48-A] | 15.7
